Assay [1] concerns the target Adenosylmethionine-8-amino-7-oxononanoate aminotransferase (Mycobacterium tuberculosis, UniProt P9WQ81). The experiment in a line: Mycobacterium tuberculosis BioA enzyme inhibitor Measured in Biochemical System Using Plate Reader - 2163-02_Inhibitor_Dose_CherryPick_Activity. Type of assay: functional, Mycobacterium tuberculosis UT205.
In assay [2] the test system is HEK293. Briefly: inhibitors of LMP1-driven NF-kB reporter, dose response, cell-based, HEK293, luciferase, cherry-pick (AID 588343). It is filed as functional. The note with it: Homo sapiens.
The target in assay [3] is T1, Latent membrane protein 1 (Human herpesvirus 4 (strain B95-8), UniProt P03230).
T1 sequence (P03230 whole entry): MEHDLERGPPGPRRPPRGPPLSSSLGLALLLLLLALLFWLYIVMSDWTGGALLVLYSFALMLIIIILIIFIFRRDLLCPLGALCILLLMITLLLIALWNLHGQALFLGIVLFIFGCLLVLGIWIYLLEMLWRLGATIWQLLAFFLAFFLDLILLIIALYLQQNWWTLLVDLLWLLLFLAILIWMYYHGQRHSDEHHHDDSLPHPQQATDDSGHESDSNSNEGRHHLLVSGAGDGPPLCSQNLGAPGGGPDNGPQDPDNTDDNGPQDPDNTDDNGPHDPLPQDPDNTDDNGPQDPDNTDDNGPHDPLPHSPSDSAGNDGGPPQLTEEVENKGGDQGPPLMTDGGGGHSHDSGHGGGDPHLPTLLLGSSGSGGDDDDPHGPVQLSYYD
The experiment in a line: TES1-eGFP NF-kB reporter inhibition versus Tet-On dsRED, dose response, selectivity assay for LMP1 NF-kB inhibitor project, imaging, HEK293T, dual-color eGFP/dsRED, cherry-picks (AID 588398). Type of assay: functional, cell-based.

For assay [4], the target named is T2, Probable nicotinate-nucleotide adenylyltransferase (Staphylococcus aureus (strain N315), UniProt P65502). Type of assay: functional, Staphylococcus aureus subsp. aureus N315.
In assay [5] the target is T2, Probable nicotinate-nucleotide adenylyltransferase. It is filed as functional, Staphylococcus aureus subsp. aureus N315. Conditions: read-out: IC50_Mean.
Assay [6] concerns H9c2. The experiment in a line: cells. Type of assay: functional, cell-based. Conditions: Rattus norvegicus, H9c2, Myocardium.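 Further: confirmatory concentration-response retest of ultra-high-throughput screening hits for modulation of myocardial damage; cell death induced by hydrogen peroxide oxidative stress; compound pretreatment for 60 min then peroxide exposure for 2 h; potency is for protecting the cells against peroxide damage rather than for killing them.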
The target of assay [7] is 26S proteasome non-ATPase regulatory subunit 14 (Homo sapiens, UniProt O00487). The experiment in a line: inhibition of proteasome subunit RPN11 – biochemical, fluorescence polarization, uHTS hits, confirmation (AID 602368). It is filed as functional. A general note: Polarisation of emitted light reports the rotation of a fluorescent probe.
The target of assay [8] is 72 kDa type IV collagenase (Homo sapiens, UniProt P08253). Briefly: Dose Response validation of uHTS RPN11 inhibitor hits using a MMP-2 Fluorescence assay. Type of assay: functional.
Assay [9] addresses Prothrombin (Bos taurus, UniProt P00735). The experiment in a line: thrombin inhibition, dose response, biochemical, fluorescence polarization, uHTS hits (AID 602369). Type of assay: functional.
In assay [10] the target is T3, Apoptotic protease-activating factor 1 (Homo sapiens, UniProt O14727).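 Further: caspase-3 cleavage of fluorogenic Rh110 DEVD substrate downstream of apoptosome activation.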
T3 sequence (O14727 whole entry): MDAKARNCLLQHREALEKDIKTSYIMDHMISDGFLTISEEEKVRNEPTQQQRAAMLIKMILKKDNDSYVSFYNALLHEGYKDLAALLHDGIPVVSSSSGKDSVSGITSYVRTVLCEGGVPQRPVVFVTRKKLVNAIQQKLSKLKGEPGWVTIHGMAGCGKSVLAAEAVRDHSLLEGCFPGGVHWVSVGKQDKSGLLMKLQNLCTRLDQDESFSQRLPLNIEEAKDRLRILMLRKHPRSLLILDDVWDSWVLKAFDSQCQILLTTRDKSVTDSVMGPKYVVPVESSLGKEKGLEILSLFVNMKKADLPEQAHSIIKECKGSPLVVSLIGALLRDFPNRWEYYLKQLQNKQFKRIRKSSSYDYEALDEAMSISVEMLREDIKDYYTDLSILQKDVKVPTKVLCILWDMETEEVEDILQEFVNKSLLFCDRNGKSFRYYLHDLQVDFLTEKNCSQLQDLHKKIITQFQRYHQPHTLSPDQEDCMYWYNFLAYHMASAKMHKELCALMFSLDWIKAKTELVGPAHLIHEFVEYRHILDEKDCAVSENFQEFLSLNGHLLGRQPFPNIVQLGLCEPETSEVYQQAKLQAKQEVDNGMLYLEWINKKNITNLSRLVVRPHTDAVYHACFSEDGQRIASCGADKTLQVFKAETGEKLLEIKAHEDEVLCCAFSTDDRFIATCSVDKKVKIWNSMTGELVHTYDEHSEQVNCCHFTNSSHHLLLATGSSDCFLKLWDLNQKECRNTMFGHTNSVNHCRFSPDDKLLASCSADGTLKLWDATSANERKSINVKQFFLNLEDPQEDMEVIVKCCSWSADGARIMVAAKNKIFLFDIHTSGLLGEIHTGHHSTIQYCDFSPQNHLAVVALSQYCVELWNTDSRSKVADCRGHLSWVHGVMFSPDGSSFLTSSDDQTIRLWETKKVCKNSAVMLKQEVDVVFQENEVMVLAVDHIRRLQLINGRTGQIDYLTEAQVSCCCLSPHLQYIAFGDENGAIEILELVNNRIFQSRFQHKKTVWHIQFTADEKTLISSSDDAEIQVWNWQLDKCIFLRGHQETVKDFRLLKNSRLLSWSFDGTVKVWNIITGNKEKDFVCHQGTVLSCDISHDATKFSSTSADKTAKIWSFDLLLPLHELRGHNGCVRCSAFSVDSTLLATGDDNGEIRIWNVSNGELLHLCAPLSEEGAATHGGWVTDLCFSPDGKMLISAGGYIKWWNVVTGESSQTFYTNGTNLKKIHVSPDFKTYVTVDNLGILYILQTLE
The experiment in a line: SAR analysis of small molecule Activators of Apaf-1 in a Fluorescent assay. It is filed as functional. The note with it: read-out: EC50_Mean.

The nature of assay [11]: NIH-3T3 fibroblast cytotoxicity, dose response, cytotoxicity control, cell-based, fluorescence, Alamar Blue, secondary assay (AID 2327).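 Further: NIH-3T3 mouse fibroblasts cultured with fluconazole at 8 µg/mL.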 Type of assay: functional.
Assay [12] is described as follows: C. albicans growth with fluconazole, confirmation, fluorescence, retest (AID 2467). It is filed as functional, cell-based.
Assay [13] relates to Vero. Briefly: cells. Conditions: Chlorocebus sabaeus. It is filed as functional.
Assay [14] is described as follows: Shn3 3'UTR reporter inhibitors, dose response, cell-based, Clone20 osteoblasts, firefly luciferase, cherry-picked (AID 624132).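 Further: firefly luciferase luminescence from reporter carrying the Shn3 3'UTR in osteoblasts.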 Type of assay: functional.
Assay [15] in a line: HepG2 cell cytotoxicity, dose response, cytotoxicity control for Shn3 inhibitor project, CellTiter-Glo, cherry-picked (AID 624134). Type of assay: functional, cell-based. (In general: ATP-based viability assays read luminescence as a measure of living cells.)
Assay [16] can be described thus: control 3'UTR Renilla luciferase suppression, dose response, counter-screen for Shn3 inhibitor project, cell-based, Clone20-Shn3RL, cherry-picked (AID 624133). Type of assay: functional.
For assay [17], the target named is T4, Sentrin-specific protease 1 (Homo sapiens, UniProt Q9P0U3).
T4 sequence (Q9P0U3 whole entry): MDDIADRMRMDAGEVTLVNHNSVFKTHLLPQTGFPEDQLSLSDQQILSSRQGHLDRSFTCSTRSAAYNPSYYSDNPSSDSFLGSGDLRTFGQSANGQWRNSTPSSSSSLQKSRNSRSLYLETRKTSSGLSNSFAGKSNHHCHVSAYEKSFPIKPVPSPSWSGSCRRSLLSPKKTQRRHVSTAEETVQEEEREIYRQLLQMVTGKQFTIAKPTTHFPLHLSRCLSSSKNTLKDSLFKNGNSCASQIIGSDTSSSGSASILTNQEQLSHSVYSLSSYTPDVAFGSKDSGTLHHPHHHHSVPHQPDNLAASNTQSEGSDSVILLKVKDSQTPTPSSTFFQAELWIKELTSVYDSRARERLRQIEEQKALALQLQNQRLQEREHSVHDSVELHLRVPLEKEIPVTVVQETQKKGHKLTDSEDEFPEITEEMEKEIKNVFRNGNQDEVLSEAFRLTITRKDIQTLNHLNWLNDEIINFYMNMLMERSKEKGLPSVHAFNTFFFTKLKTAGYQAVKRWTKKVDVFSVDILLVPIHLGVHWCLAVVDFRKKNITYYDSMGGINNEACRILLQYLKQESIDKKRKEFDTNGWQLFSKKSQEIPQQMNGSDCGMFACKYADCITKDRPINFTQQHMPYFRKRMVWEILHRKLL
The experiment in a line: potency of human SENP1 inhibitors, dose response, biochemical, kinetic FRET (AID 651697). It is filed as functional. Conditions: read-out: IC50_Mean.

For assay [18], the target named is T4, Sentrin-specific protease 1. Briefly: Dose response confirmation of small molecule inhibitors of the catalytic domain of the SUMO protease, SENP1 in a FRET assay. The note with it: read-out: IC50_Mean. It is filed as functional.
The target in assay [19] is T5, Rac GTPase-activating protein 1 (Homo sapiens, UniProt Q9H0H5).
T5 sequence (Q9H0H5 whole entry): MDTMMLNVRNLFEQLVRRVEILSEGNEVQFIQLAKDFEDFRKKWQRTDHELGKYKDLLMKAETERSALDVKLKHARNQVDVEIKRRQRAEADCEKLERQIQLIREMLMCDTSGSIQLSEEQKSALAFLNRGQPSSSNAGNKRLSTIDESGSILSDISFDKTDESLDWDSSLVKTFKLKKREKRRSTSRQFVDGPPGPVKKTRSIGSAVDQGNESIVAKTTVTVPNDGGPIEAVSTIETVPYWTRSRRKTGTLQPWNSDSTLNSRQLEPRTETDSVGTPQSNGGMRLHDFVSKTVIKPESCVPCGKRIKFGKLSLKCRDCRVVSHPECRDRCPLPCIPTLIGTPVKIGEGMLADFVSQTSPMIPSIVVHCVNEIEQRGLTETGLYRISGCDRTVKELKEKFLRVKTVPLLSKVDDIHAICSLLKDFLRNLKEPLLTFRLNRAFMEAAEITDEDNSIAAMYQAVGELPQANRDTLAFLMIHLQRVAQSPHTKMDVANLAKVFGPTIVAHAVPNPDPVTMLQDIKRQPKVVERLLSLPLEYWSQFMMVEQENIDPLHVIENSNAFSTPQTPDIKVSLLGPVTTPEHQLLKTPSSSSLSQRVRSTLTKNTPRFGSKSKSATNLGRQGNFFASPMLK
The experiment in a line: MgcRacGAP GTPase-activating activity inhibitors, confirmation, biochemical, ADP Hunter fluorescence, primary and confirmatory (AID 624330). Type of assay: functional.

Assay [20] deals with Ras and Rab interactor 1/Tyrosine-protein kinase ABL1 (Homo sapiens, UniProt P00519+Q13671). Type of assay: functional.

The source made the active and inactive calls.

72 kDa type IV collagenase, sequence (P08253 whole entry): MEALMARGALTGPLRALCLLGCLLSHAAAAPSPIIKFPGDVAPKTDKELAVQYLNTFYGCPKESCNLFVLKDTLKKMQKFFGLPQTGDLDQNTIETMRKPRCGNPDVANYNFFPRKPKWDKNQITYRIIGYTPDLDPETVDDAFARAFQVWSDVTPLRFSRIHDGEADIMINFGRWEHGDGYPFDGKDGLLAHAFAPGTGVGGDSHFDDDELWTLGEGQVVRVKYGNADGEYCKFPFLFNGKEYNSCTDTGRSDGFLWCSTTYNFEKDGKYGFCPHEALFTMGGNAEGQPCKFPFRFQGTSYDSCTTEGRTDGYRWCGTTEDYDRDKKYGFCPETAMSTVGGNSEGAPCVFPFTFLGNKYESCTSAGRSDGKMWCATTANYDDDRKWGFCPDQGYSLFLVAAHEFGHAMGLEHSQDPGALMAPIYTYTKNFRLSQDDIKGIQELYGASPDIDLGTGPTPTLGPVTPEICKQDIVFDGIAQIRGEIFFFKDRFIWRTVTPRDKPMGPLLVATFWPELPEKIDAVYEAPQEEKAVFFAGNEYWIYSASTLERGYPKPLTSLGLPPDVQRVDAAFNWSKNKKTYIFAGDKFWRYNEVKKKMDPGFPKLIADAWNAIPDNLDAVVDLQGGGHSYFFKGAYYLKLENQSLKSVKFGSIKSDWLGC
Adenosylmethionine-8-amino-7-oxononanoate aminotransferase, sequence (P9WQ81 whole entry): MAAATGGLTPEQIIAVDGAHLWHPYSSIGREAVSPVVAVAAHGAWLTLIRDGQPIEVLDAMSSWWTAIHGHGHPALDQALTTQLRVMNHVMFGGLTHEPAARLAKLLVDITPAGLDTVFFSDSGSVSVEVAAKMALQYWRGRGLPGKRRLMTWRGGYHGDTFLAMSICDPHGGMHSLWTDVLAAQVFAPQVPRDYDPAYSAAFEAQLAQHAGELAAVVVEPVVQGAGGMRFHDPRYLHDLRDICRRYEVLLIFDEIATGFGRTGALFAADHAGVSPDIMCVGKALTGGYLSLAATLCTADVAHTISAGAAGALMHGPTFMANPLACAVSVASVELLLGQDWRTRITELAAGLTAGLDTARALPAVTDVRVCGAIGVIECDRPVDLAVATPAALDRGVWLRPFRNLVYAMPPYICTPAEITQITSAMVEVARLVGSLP
T2 sequence (P65502 whole entry): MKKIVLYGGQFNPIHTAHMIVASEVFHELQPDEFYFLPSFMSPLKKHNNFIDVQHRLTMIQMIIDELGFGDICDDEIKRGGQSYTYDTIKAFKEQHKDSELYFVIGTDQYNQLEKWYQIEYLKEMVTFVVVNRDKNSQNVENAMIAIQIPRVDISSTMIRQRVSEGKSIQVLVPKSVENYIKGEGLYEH
26S proteasome non-ATPase regulatory subunit 14, sequence (O00487 whole entry): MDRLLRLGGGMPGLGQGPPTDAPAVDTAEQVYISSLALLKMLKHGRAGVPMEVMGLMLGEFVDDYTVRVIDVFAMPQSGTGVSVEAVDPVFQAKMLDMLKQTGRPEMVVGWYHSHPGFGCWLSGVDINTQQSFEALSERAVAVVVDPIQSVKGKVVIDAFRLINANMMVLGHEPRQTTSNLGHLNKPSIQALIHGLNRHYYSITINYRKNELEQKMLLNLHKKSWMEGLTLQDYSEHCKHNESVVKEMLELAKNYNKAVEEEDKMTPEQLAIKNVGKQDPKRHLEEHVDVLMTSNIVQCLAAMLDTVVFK
Ras and Rab interactor 1/Tyrosine-protein kinase ABL1, sequence (P00519 whole entry): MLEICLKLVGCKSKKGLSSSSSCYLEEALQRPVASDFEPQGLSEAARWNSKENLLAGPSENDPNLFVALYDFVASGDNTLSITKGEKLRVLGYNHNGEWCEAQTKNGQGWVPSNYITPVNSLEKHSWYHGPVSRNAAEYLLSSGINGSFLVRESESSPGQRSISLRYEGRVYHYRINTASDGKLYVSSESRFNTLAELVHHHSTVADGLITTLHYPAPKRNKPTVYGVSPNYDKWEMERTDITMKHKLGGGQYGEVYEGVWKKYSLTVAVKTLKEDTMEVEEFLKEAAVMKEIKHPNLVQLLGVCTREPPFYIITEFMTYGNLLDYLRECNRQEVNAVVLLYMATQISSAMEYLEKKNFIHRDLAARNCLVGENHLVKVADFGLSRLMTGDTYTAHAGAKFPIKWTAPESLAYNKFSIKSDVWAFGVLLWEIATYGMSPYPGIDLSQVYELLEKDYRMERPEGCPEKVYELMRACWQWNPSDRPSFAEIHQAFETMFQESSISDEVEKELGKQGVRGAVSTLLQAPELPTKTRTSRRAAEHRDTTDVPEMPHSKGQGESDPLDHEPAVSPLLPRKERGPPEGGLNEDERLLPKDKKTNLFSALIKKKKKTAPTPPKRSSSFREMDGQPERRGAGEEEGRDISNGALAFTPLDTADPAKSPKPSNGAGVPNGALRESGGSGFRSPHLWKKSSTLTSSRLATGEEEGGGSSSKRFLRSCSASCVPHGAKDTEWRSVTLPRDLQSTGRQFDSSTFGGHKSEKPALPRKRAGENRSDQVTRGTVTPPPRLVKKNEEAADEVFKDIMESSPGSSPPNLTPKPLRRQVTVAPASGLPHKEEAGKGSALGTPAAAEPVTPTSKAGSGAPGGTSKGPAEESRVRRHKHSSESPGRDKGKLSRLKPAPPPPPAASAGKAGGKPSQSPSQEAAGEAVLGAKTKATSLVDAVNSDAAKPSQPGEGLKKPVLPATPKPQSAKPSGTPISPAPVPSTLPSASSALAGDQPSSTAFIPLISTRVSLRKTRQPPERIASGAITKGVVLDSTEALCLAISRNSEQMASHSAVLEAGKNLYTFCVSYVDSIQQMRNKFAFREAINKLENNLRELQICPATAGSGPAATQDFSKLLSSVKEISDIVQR
Ras and Rab interactor 1/Tyrosine-protein kinase ABL1, sequence (Q13671 whole entry): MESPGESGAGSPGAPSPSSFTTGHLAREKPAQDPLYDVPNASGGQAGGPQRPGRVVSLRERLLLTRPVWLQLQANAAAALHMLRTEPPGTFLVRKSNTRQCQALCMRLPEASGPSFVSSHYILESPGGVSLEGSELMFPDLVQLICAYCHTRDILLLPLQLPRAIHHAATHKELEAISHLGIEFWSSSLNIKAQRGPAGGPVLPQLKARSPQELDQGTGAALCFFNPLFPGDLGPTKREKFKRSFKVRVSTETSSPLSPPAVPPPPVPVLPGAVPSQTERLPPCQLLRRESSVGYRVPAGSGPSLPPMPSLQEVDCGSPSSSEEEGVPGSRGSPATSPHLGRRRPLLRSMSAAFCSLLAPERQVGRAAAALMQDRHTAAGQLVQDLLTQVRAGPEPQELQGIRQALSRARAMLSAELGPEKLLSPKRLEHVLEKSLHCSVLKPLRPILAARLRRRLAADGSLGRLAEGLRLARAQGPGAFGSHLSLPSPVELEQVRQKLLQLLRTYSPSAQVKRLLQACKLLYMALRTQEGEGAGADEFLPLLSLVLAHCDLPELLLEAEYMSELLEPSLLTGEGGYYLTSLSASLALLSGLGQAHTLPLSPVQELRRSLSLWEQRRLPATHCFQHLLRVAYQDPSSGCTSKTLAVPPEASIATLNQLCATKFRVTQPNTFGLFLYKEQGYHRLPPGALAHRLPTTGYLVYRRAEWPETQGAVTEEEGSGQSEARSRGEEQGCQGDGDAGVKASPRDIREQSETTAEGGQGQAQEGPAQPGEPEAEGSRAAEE

For `Cc1c(OC(C)C(=O)NCc2ccccn2)ccc2c3c(c(=O)oc12)CCC3` (configuration not stated), the AC50 (in general, the midpoint of the concentration-response curve, whichever way the signal moves) in assay [1] is 6.05 µM (active).

As for `CCn1c2ccccc2c2cc(/C=N/n3c(S)nnc3-c3cc(C)[nH]n3)ccc21`, the results for the AC50 in assay [2] and in assay [3] were 8.12 µM (active) and 0.288 µM (active), respectively. Moreover, the figures for the IC50 in [4] and in assay [5] were 8.02 µM (active) and 33.7 µM (active), respectively.

As to `COc1ccc(-c2ccc3c(c2)S(=O)(=O)c2cccc(C(=O)N4CCN(c5c(Cl)cncc5Cl)CC4)c2C3=O)cc1OC`, the IC50 is > 79 µM (inactive) in [6], 21.7 µM (active) in [7], > 100 µM (inactive) in assay [8] and 29.3 µM (active) in assay [9].

Consider `CN1c2ccccc2C(C)(C)C12CC(c1ccc(F)cc1)=NO2` (configuration not stated), for which the EC50 in assay [10] was > 100 µM (inactive).

Turning to `COc1ccc(C(=O)NC(=S)NNC(=O)c2ccc3ccccc3n2)cc1`, the figures for the EC50 in [11] and in [12] were 28.4 µM (active) and 3.06 µM (active), respectively. Also, the concentration at half-maximal activity (AC50) in assay [2] is 13.6 µM (active); in assay [3], 26.8 µM (active); in assay [14], 4.32 µM (active); in assay [15], 41.5 µM (active); in [16], 1.37 µM (active). In [13], the cytotoxic concentration (CC50) (commonly the concentration at which the toxic effect on the cells reaches its halfway point) is 10.1 µM (active).

With `N[C@@H](CCc1ccccc1)C(=O)O` [HOMOPHENYLALANINE], the EC50 in [10] is > 100 µM (inactive).

With `CCOC(=O)C1CCCN(C2=NC(=O)/C(=C/c3ccc(O)c(OC)c3)S2)C1` (configuration not stated), the IC50 is 26.3 µM (active) in [7]; > 100 µM (inactive) in assay [8]; 40.6 µM (active) in assay [9]; 2.97 µM (active) in [17]; 2.49 µM (active) in assay [18]; 19.6 µM (active) in assay [19].

For the molecule `CCc1nn(CC(=O)N2CCN(Cc3ccc4c(c3)OCO4)CC2)c(=O)c2cc3occc3n12`, the AC50 in [1] was 1.01 µM (active).

Take `CCOC(=O)CCCCC(=O)c1[nH]c(O)nc1C[n+]1ccc(C)cc1`: the IC50 in [20] was 5.77 µM (active).

For the origin of these results see ChEMBL document CHEMBL1201862, “PubChem BioAssay data set” (2004).
